PubChem BioAssay (NCI)
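96-well plates; 48 h exposure; 5 concentrations. Endpoints by linear interpolation between flanking doses. Not reached: highest tested concentration assigned. TGI denotes the concentration required for complete inhibition of growth.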

Legend:
Test in all cases: NCI-60 cell line screen, 48 h
[1] = test system: NCI-H23 lung
[2] = test system: MALME-3M melanoma
[3] = test system: OVCAR-4 ovarian
[4] = test system: CCRF-CEM leukemia
[5] = test system: NCI-H460 lung
[6] = test system: SK-MEL-28 melanoma
[7] = test system: UACC-62 melanoma
[8] = test system: LOX IMVI melanoma
[9] = test system: RPMI-8226 leukemia
[10] = test system: HCT-15 colon
[11] = test system: SK-MEL-5 melanoma
[12] = test system: NCI/ADR-RES ovarian
[13] = test system: T-47D breast
[14] = test system: UO-31 renal
[15] = test system: HL-60(TB) leukemia
[16] = test system: MDA-MB-435
[17] = test system: PC-3 prostate
[18] = test system: SR leukemia
[19] = test system: RXF 393 renal
[20] = test system: MOLT-4 leukemia

SMILES | TGI [1] | TGI [2] | TGI [3] | TGI [4] | TGI [5] | TGI [6] | TGI [7] | TGI [8] | TGI [9] | TGI [10] | TGI [11] | TGI [12] | TGI [13] | TGI [14] | TGI [15] | TGI [16] | TGI [17] | TGI [18] | TGI [19] | TGI [20]
CC1OC(OC2C(CO)OC(O[C@H]3CC[C@@]4(C)C(=CC[C@H]5[C@@H]6C[C@@H]7O[C@](O)(CC[C@H](C)COC8OC(CO)C(O)C(O)C8O)[C@@H](C)[C@@H]7[C@@]6(C)CC[C@@H]54)C3)C(OC3OC(C)C(O)C(O)C3O)C2O)C(O)C(O)C1O (some centres undefined) | 17.4 µM | 18.9 µM | 28.8 µM | 4.47 µM | > 45.7 µM | 12 µM | > 50.4 µM | 4.9 µM | 17.4 µM | 10 µM | > 32.8 µM | 18.4 µM | 17 µM | 13.3 µM | > 100 µM | 7.03 µM | 15.9 µM | > 100 µM | 98.7 µM | –
O=C1N=NC(=O)N1c1cc(C(F)(F)F)cc(C(F)(F)F)c1 | 6.48 µM | 14.2 µM | 27.5 µM | > 45 µM | 13.4 µM | 44.3 µM | 18.3 µM | 11.7 µM | 22.1 µM | 12 µM | 7.62 µM | 11.5 µM | > 30.2 µM | 7.89 µM | > 100 µM | 33.2 µM | 12.8 µM | > 53.1 µM | 12.4 µM | 40.3 µM
C=C(C)[C@@H]1CCC2=C[C@H](OC2=O)[C@@]2(C)C[C@@H]2C(=O)/C=C(/C)C(=O)[C@H]1OC(C)=O | > 58.5 µM | 29.8 µM | > 63.6 µM | > 25.2 µM | > 82.3 µM | 52.9 µM | > 73 µM | 41.3 µM | 23.5 µM | > 55.7 µM | 29.7 µM | > 100 µM | 26.1 µM | > 100 µM | > 100 µM | > 65.2 µM | > 46.1 µM | > 37.8 µM | > 48 µM | > 39.4 µM
CCOC(=O)N1CCN(c2nc(C)n(-c3ccccc3)c(=S)c2C#N)CC1 | > 100 µM | > 100 µM | > 100 µM | > 62.6 µM | > 100 µM | > 100 µM | > 100 µM | > 100 µM | > 100 µM | > 100 µM | > 100 µM | > 100 µM | > 100 µM | > 100 µM | > 66.7 µM | > 100 µM | > 100 µM | > 100 µM | > 100 µM | > 100 µM
Cn1c(=O)cc(N=Nc2ccc(Cl)c(Cl)c2)[nH]c1=O | 86.5 µM | 32.6 µM | 61.7 µM | 68.8 µM | > 100 µM | 57.5 µM | > 100 µM | 34.3 µM | 71.1 µM | 38.9 µM | > 100 µM | 77.4 µM | > 100 µM | > 100 µM | 50.7 µM | 40.5 µM | 56.1 µM | 54 µM | 63.6 µM | 61 µM
CC(C)[Si](OC1=C(c2ccccc2)C(NC(=O)/C=C/c2ccc([N+](=O)[O-])cc2)CCC1)(C(C)C)C(C)C (centres undefined) | > 100 µM | > 100 µM | – | > 100 µM | > 100 µM | – | > 100 µM | > 100 µM | > 100 µM | > 100 µM | > 100 µM | > 100 µM | > 100 µM | > 100 µM | > 100 µM | > 100 µM | > 100 µM | > 100 µM | > 100 µM | > 100 µM
CCOC(=O)c1[nH]cc(C)c1-c1c[nH]c2ccccc12 | > 100 µM | > 100 µM | > 100 µM | > 78.1 µM | > 87.5 µM | > 100 µM | > 100 µM | 40.2 µM | 41.9 µM | > 100 µM | 34.5 µM | 72.5 µM | > 100 µM | 48.1 µM | > 100 µM | > 100 µM | > 82.7 µM | > 39.4 µM | > 80 µM | 27.9 µM
O=[N+]([O-])c1cc(-c2nnc(C34CC5CC(CC(C5)C3)C4)o2)cc([N+](=O)[O-])c1 | > 100 µM | > 100 µM | > 100 µM | > 100 µM | > 100 µM | > 100 µM | > 100 µM | > 100 µM | > 100 µM | > 100 µM | 44.8 µM | > 100 µM | > 100 µM | > 100 µM | > 100 µM | 77 µM | > 100 µM | > 100 µM | > 100 µM | > 100 µM
COC(=O)Cc1c(/C=C/C(C)(C)n2cnc(CCN3C(=O)CCC3=O)c2)[nH]c2ccccc12 | > 100 µM | 97.8 µM | > 100 µM | > 100 µM | > 100 µM | > 100 µM | > 100 µM | > 100 µM | – | > 100 µM | > 100 µM | > 100 µM | 60.1 µM | > 100 µM | > 100 µM | > 100 µM | > 100 µM | > 100 µM | > 100 µM | > 100 µM
CCCNC(=O)Cn1c(C)cc2ccccc21 | > 100 µM | > 100 µM | > 100 µM | > 100 µM | – | > 100 µM | > 100 µM | > 100 µM | > 100 µM | > 100 µM | > 100 µM | > 100 µM | > 100 µM | > 100 µM | > 100 µM | > 100 µM | > 100 µM | > 100 µM | > 100 µM | > 100 µM
Cc1cn([C@H]2C[C@@H]3[C@@H](COC(CCl)N3O)O2)c(=O)[nH]c1=O (some centres undefined) | – | > 100 µM | > 100 µM | > 100 µM | > 100 µM | > 100 µM | > 100 µM | > 100 µM | > 100 µM | > 100 µM | > 100 µM | > 100 µM | > 100 µM | > 100 µM | > 100 µM | > 100 µM | > 100 µM | > 100 µM | > 100 µM | > 100 µM
